Assay results published in US7851474B2, “Dipiperazinyl ketones and related analogues” (Neurogen Corporation, priority 2005, dated 2010).
Like-named read-outs stand apart in the source and are kept apart here.

Target: T1, chimeric human H3 receptor (Homo sapiens, UniProt Q9Y5N1, E19D)
T1 construct: made in house; host or cells: Sf9 insect cells (baculovirus infection); P2 membrane preparation
Assay: Chimeric human H3 receptor GTP binding assay (agonist-stimulated GTP-gamma35S binding, Example 7)
Format: biochemical
How it was run: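 Sf9 membranes co-expressing the chimeric receptor and heterotrimeric G-protein subunits, 35 μg protein per tube, in pH 7.4 Tris buffer with 10 μM GDP. Test compounds at 10^−10 to 10^−6 M with 1 μM histamine, 60 min at room temperature. Filter-bound GTP-gamma^35S read by scintillation; IC50 from non-linear regression of dose-response curves.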

[1] = Table II, "*" in Ki, assay of Example 7, read-out: Ki
[2] = "*" in Ki of Table II, assay of Example 7, read-out: Ki
[3] = Table II, assay of Example 7, "*" in Ki, read-out: Ki
[4] = assay of Example 7, symbol * in column headed Ki of Table II, read-out: Ki
[5] = Table II "Ki", symbol "*": Ki in the assay of Example 7, read-out: Ki
[6] = assay of Example 7, "*" in Ki of Table II, read-out: Ki

T1 sequence (Q9Y5N1 with tags, fused parts or gaps E19D): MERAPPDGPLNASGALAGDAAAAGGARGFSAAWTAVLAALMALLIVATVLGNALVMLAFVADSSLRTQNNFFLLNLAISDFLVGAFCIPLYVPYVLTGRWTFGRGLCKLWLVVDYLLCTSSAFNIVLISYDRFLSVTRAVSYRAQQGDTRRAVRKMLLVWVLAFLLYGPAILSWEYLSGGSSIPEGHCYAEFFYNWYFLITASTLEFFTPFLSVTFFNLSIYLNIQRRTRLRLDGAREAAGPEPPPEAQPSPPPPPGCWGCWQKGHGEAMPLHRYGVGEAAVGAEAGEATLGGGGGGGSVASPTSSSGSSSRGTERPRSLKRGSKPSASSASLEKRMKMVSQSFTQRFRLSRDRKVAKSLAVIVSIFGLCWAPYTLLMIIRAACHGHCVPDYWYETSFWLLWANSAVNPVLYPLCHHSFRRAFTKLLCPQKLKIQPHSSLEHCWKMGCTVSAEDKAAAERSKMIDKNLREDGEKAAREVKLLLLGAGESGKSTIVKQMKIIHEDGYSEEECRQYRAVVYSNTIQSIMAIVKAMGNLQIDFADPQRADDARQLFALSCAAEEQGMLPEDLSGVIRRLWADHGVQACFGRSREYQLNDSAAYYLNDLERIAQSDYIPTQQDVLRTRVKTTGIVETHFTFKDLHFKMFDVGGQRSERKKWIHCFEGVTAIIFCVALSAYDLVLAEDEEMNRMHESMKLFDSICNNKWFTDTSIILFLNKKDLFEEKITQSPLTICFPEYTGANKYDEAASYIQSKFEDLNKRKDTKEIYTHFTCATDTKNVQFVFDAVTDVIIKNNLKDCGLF

Structure (SMILES): O=C(CN1CCN(c2cccc(F)c2)CC1)N1CCN(C2CCC2)CC1 [Compound 754, 1-cyclobutyl-4-{[4-(3-fluorophenyl)piperazin-1-yl]acetyl}piperazine]
- Ki [1]: < 1000 nM

Structure (SMILES): COc1ccccc1CC(=O)N1CCN(CC(=O)N2CCN(C3CCC3)CC2)CC1 [Compound 536, 1-cyclobutyl-4-({4-[(2-methoxyphenyl)acetyl]piperazin-1-yl}acetyl)piperazine]
- Ki [2]: < 1000 nM

Structure (SMILES): CC1CCN(C(=O)c2cccc(N3CCN(CC(=O)N4CCN(C5CCC5)CC4)CC3)c2)CC1 [Compound 642, 1-cyclobutyl-4-[(4-{3-[(4-methylpiperidin-1-yl)carbonyl]phenyl}piperazin-1-yl)acetyl]piperazine]
- Ki [1]: < 1000 nM

Structure (SMILES): CC(C)N1CCN(C(=O)CN2CCN(c3ccc(Cl)c(C(F)(F)F)c3)CC2)CC1 [Compound 467, 1-[4-chloro-3-(trifluoromethyl)phenyl]-4-[2-(4-isopropylpiperazin-1-yl)-2-oxoethyl]piperazine]
- Ki [2]: < 1000 nM

Structure (SMILES): CC(C)N1CCN(C(=O)CN2CCN(c3ccc(F)c(C(F)(F)F)c3)CC2)CC1 [Compound 468, 1-[4-fluoro-3-(trifluoromethyl)phenyl]-4-[2-(4-isopropylpiperazin-1-yl)-2-oxoethyl]piperazine]
- Ki [2]: < 1000 nM

Structure (SMILES): N#Cc1ccc(-c2ccc(N3CCN(CC(=O)N4CCN(C5CCC5)CC4)CC3)cc2)cc1 [Compound 1119, 4′-{1-[2-(4-cyclobutylpiperazin-1-yl)-2-oxoethyl]piperazin-1-yl}biphenyl-4-carbonitrile]
- Ki [3]: < 1000 nM

Structure (SMILES): CCC(C)N1CCN(C(=O)CN2CCN(c3ccc(Br)c(OC)c3)CC2)CC1 (stereo not shown) [Compound 337, 1-(4-bromo-3-methoxyphenyl)-4-[2-(4-sec-butylpiperazin-1-yl)-2-oxoethyl]piperazine]
- Ki [4]: < 1000 nM

Structure (SMILES): CCc1cccc(-c2ccc(N3CCN(CC(=O)N4CCN(C5CCC5)CC4)CC3)cc2)c1 [Compound 747, 1-cyclobutyl-4-{[4-(3′-ethylbiphenyl-4-yl)piperazin-1-yl]acetyl}piperazine]
- Ki [1]: < 1000 nM

Structure (SMILES): O=C(Cc1c(Cl)cccc1Cl)N1CCN(CC(=O)N2CCN(C3CCC3)CC2)CC1 [Compound 511, 1-cyclobutyl-4-({4-[(2,6-dichlorophenyl)acetyl]piperazin-1-yl}acetyl)piperazine]
- Ki [2]: < 1000 nM

Structure (SMILES): Cc1cccc(N2CCN(CC(=O)N3CCN(C4CCCCC4)CC3)CC2)c1 [Compound 821, 1-cyclohexyl-4-{[4-(3-methylphenyl)piperazin-1-yl]acetyl}piperazine]
- Ki [5]: < 1000 nM

Structure (SMILES): CN(C)c1cccc(-c2cnc(N3CCN(CC(=O)N4CCN(C5CCC5)CC4)CC3)cn2)c1 [Compound 993, 3-(5-{4-[2-(4-cyclobutylpiperazin-1-yl)-2-oxoethyl]piperazin-1-yl}pyrazin-2-yl)-N,N-dimethylaniline]
- Ki [3]: < 1000 nM

Structure (SMILES): O=C(CN1CCN(c2ccc([N+](=O)[O-])cc2)CC1)N1CCN(C2CCCCC2)CC1 [Compound 825, 1-cyclohexyl-4-{[4-(4-nitrophenyl)piperazin-1-yl]acetyl}piperazine]
- Ki [5]: < 1000 nM

Structure (SMILES): C=CCN1CCN(C(=O)CN2CCN(c3ccc(C(F)(F)F)cc3)CC2)CC1 [Compound 487, 1-allyl-4-({4-[4-(trifluoromethyl)phenyl]piperazin-1-yl}acetyl)piperazine]
- Ki: < 1000 nM

Structure (SMILES): CN(C(=O)c1ccc(N2CCN(CC(=O)N3CCN(C4CCC4)CC3)CC2)nc1)C1CCCCC1 [Compound 1170, 6-{4-[2-(4-cyclobutylpiperazin-1-yl)-2-oxoethyl]piperazin-1-yl}-N-cyclohexyl-N-methylnicotinamide]
- Ki [6]: < 1000 nM

Structure (SMILES): CN(C(=O)c1cccc(N2CCN(CC(=O)N3CCN(C4CCC4)CC3)CC2)c1)C1CCCCC1 [Compound 1068, 3-{4-[2-(4-cyclobutylpiperazin-1-yl)-2-oxoethyl]piperazin-1-yl}-N-cyclohexyl-N-methylbenzamide]
- Ki [3]: < 1000 nM

Structure (SMILES): COc1ccc(C(=O)NC2CCN(CC(=O)N3CCN(C4CCC4)CC3)C2)cc1F (stereo not shown) [Compound 1243, N-{1-[2-(4-cyclobutylpiperazin-1-yl)-2-oxoethyl]pyrrolidin-3-yl}-3-fluoro-4-methoxybenzamide]
- Ki [6]: < 1000 nM

Structure (SMILES): O=C(CN1CCN(c2cccc(C(F)(F)F)c2)CC1)N1CCN(C2CCCC2)CC1 [Compound 827, 1-cyclopentyl-4-({4-[3-(trifluoromethyl)phenyl]piperazin-1-yl}acetyl)piperazine]
- Ki: < 1000 nM

Structure (SMILES): CCC(C)N1CCN(C(=O)CN2CCC(N3CCOCC3)CC2)CC1 (stereo not shown) [Compound 1116, 4-{1-[2-(4-sec-butylpiperazin-1-yl)-2-oxoethyl]piperidin-4-yl}morpholine]
- Ki [3]: < 1000 nM

Structure (SMILES): CCC(C)CNC(=O)c1ccc(N2CCN(CC(=O)N3CCN(C4CCC4)CC3)CC2)cc1 (stereo not shown) [Compound 1131, 4-{4-[2-(4-cyclobutylpiperazin-1-yl)-2-oxoethyl]piperazin-1-yl}-N-(2-methylbutyl)benzamide]
- Ki [3]: < 1000 nM

Structure (SMILES): O=C(CN1CCN(c2ccc(C(=O)N3CC[C@@H]4CCCC[C@@H]4C3)cc2)CC1)N1CCN(C2CCC2)CC1 [Compound 255, (4aS,8aS)-2-(4-{4-[2-(4-cyclobutylpiperazin-1-yl)-2-oxoethyl]piperazin-1-yl}benzoyl) decahydroisoquinoline]
- Ki [4]: < 1000 nM

Structure (SMILES): O=C(CN1CCN(c2ccc(-c3cccc(F)c3F)cc2)CC1)N1CCN(C2CCC2)CC1 [Compound 667, 1-cyclobutyl-4-{[4-(2′,3′-difluorobiphenyl-4-yl)piperazin-1-yl]acetyl}piperazine]
- Ki [1]: < 1000 nM

Structure (SMILES): CCOC(=O)c1ccc(-c2cnc(N3CCN(CC(=O)N4CCN(C5CCC5)CC4)CC3)cn2)cc1 [Compound 1197, ethyl 4-(5-{4-[2-(4-cyclobutylpiperazin-1-yl)-2-oxoethyl]piperazin-1-yl}pyrazin-2-yl)benzoate]
- Ki [6]: < 1000 nM

Structure (SMILES): O=C(CN1CCC(N2CCCCC2)CC1)N1CCN(C2CCCCC2)CC1 [Compound 437, 1′-[2-(4-cyclohexylpiperazin-1-yl)-2-oxoethyl]-1,4′-bipiperidine]
- Ki [4]: < 1000 nM

Structure (SMILES): O=C(CN1CCN(c2ccc(-c3ccc(C(F)(F)F)cc3)nn2)CC1)N1CCN(C2CCC2)CC1 [Compound 1062, 3-{4-[2-(4-cyclobutylpiperazin-1-yl)-2-oxoethyl]piperazin-1-yl}-6-[4-(trifluoromethyl)phenyl] pyridazine]
- Ki [3]: < 1000 nM

Structure (SMILES): CC(=O)c1ccc(-c2ccc(N3CCN(CC(=O)N4CCN(C5CCC5)CC4)CC3)nn2)cc1 [Compound 459, 1-[4-(6-{4-[2-(4-cyclobutylpiperazin-1-yl)-2-oxoethyl]piperazin-1-yl}pyridazin-3-yl)phenyl]ethanone]
- Ki [2]: < 1000 nM

Structure (SMILES): CC(C)(C)c1ccc(-c2ccc(N3CCN(CC(=O)N4CCN(C5CCC5)CC4)CC3)nn2)cc1 [Compound 992, 3-(4-tert-butylphenyl)-6-{4-[2-(4-cyclobutylpiperazin-1-yl)-2-oxoethyl]piperazin-1-yl}pyridazine]
- Ki [3]: < 1000 nM

Structure (SMILES): O=C(CN1CCN(c2ccc(-c3ccc(F)cc3)nn2)CC1)N1CCN(C2CCC2)CC1 [Compound 1003, 3-{4-[2-(4-cyclobutylpiperazin-1-yl)-2-oxoethyl]piperazin-1-yl}-6-(4-fluorophenyl)pyridazine]
- Ki [3]: < 1000 nM

Structure (SMILES): O=C(CN1CCC(N2CCOCC2)CC1)N1CCN(C2CCC2)CC1 [Compound 1115, 4-{1-[2-(4-cyclobutylpiperazin-1-yl)-2-oxoethyl]piperidin-4-yl}morpholine]
- Ki [3]: < 1000 nM

Structure (SMILES): COc1cc(N2CCN(CC(=O)N3CCN(C4CCC4)CC3)CC2)ccc1C(C)=O [Compound 318, 1-(4-{4-[2-(4-cyclobutylpiperazin-1-yl)-2-oxoethyl]piperazin-1-yl}-2-methoxyphenyl)ethanone]
- Ki [4]: < 1000 nM

Structure (SMILES): CCOC(=O)c1cccc(-c2ccc(N3CCN(CC(=O)N4CCN(C5CCC5)CC4)CC3)nn2)c1 [Compound 1196, ethyl 3-(6-{4-(2-(4-cyclobutylpiperazin-1-yl)-2-oxoethyl]piperazin-1-yl}pyridazin-3-yl)benzoate]
- Ki [6]: < 1000 nM

Structure (SMILES): Cc1ccc(N2CCN(CC(=O)N3CCN(C4CCCCC4)CC3)CC2)cc1 [Compound 824, 1-cyclohexyl-4-{[4-(4-methylphenyl)piperazin-1-yl]acetyl}piperazine]
- Ki [5]: < 1000 nM

Structure (SMILES): CC(C)C(=O)c1ccc(N2CCN(CC(=O)N3CCN(C4CCCC4)CC3)CC2)cc1 [Compound 325, 1-(4-{4-[2-(4-cyclopentylpiperazin-1-yl)-2-oxoethyl]piperazin-1-yl}phenyl)-2-methylpropan-1-one]
- Ki [4]: < 1000 nM

Structure (SMILES): CCC(C)N1CCN(C(=O)CN2CCN(c3ccc(C)c(C)c3)CC2)CC1 (stereo not shown) [Compound 871, 1-sec-butyl-4-{[4-(3,4-dimethylphenyl)piperazin-1-yl]acetyl}piperazine]
- Ki [5]: < 1000 nM

Structure (SMILES): CCC(C)N1CCN(C(=O)CN2CCN(c3cccc(OC)c3)CC2)CC1 (stereo not shown) [Compound 875, 1-sec-butyl-4-{[4-(3-methoxyphenyl)piperazin-1-yl]acetyl}piperazine]
- Ki [5]: < 1000 nM

Structure (SMILES): CC(=O)c1ccc(N2C(=O)C3(CCN(CC(=O)N4CCN(C5CCC5)CC4)CC3)c3ccccc32)nc1 [Compound 363, 1-(5-acetylpyridin-2-yl)-1′-[2-(4-cyclobutylpiperazin-1-yl)-2-oxoethyl]spiro[indole-3,4′-piperidin]-2(1H)-one]
- Ki [4]: < 1000 nM

Structure (SMILES): CC(Oc1cccc(Cl)c1)C(=O)N1CCN(CC(=O)N2CCN(C3CCC3)CC2)CC1 (stereo not shown) [Compound 418, 1-[2-(3-chlorophenoxy)propanoyl]-4-[2-(4-cyclobutylpiperazin-1-yl)-2-oxoethyl]piperazine]
- Ki [4]: < 1000 nM

Structure (SMILES): CCC(C)N1CCN(C(=O)CN2CCN(c3ccccc3Cl)CC2)CC1 (stereo not shown) [Compound 866, 1-sec-butyl-4-{[4-(2-chlorophenyl)piperazin-1-yl]acetyl}piperazine]
- Ki [5]: < 1000 nM
